Measured values: patent US10508285B2, “Method for screening of genes conferring increased tolerance to herbicides” (priority 2014, dated 2019)

Legend:
[1] = molecular target: T1, Transketolase wildtype (Spinacia oleracea) (Spinacia oleracea, UniProt O20250); assay: Herbicide tolerance of transiently transformed tobacco leaf discs, PSII yield (PAM imaging); assay type: cell-based; conditions: IC50 of PSII yield inhibition, Nicotiana benthamiana leaf discs expressing Spinacia oleracea Transketolase wildtype versus empty vector-transformed leaf discs
T1 construct: expressed in transfected cells; host or cells: Nicotiana benthamiana leaves, Agrobacterium tumefaciens GV2260 infiltration
T1 sequence (O20250 67-741): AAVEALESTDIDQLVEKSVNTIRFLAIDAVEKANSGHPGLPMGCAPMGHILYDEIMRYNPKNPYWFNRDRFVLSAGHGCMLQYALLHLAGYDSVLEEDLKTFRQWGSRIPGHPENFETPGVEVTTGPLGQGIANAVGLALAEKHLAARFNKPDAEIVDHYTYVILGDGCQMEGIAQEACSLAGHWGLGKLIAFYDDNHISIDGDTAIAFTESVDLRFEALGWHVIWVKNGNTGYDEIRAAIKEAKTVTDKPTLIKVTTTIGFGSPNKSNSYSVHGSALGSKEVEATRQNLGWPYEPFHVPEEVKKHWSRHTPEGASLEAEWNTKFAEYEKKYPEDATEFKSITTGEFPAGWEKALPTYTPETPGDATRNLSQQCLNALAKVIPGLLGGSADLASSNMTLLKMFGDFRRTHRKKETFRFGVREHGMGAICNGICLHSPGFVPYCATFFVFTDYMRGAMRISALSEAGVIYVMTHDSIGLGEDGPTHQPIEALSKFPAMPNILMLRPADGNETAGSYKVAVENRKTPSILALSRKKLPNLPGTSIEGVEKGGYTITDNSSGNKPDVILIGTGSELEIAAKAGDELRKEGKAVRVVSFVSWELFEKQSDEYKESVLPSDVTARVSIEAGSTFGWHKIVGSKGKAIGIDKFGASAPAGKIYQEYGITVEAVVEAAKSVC

[2] = system: Protoporphyrinogen IX Oxidase (PPO) L397Q_F420M; assay type: cell-based, Amaranthus tuberculatus
[3] = system: Protoporphyrinogen IX Oxidase (PPO) wildtype; assay: Herbicide tolerance of transiently transformed tobacco leaf discs, PSII yield (PAM imaging); assay type: cell-based; conditions: IC50 of PSII yield inhibition, Nicotiana benthamiana leaf discs expressing Alopecurus myosuroides PPO wildtype versus empty vector-transformed leaf discs
[4] = system: Cytochrome P450 wildtype (Zea mays); assay: as above; conditions: IC50 of PSII yield inhibition, Nicotiana benthamiana leaf discs expressing Zea mays Cytochrome P450 wildtype versus empty vector-transformed leaf discs

C/C=C1/CC2=C(C(=O)OC2=O)[C@H](CCC)[C@H](O)C(=O)C[C@@H]1O [Cornexistin]
Tolerance factor [1]: 3.6

CC(C)N(C)S(=O)(=O)NC(=O)c1cc(-n2c(=O)cc(C(F)(F)F)n(C)c2=O)c(F)cc1Cl [Saflufenacil]
Tolerance factor [2]: 150 | Tolerance factor [3]: 177

CC(C)N1C(=O)c2ccccc2NS1(=O)=O [Bentazon]
Tolerance factor [4]: 13.4
